The source of these data is US20180031513A1, “CELL CHIP-BASED QUANTITATIVE ANALYSIS OF UNDIFFERENTIATED HUMAN PLURIPOTENT STEM CELL” (SOGANG UNIVERSITY RESEARCH FOUNDATION, priority 2015, published 2018).

Common to all, as to assay type: cell-based, human
The subject of experiment [1] is hiPSCs co-cultured with hASMCs. In words: Cell chip ipc and colony morphology in mixed culture of hiPSCs and hASMCs after YM155 treatment. The method, then: (§1) Cyclic voltammetry (CV) method was carried out using a CHIe660C Potentiostat (CH Instruments, Austin, Tex., USA). A fabricated chip, based on an Au electrode as a working electrode, an Ag/AgCl (1M KCl) as a reference electrode, and a Pt wire as a counter electrode was used. For the electrochemical measurement, cells were washed with PBS (0.01 M, PH 7.4). CV detection was performed between −0.2 V and 0.6 V at 0.1 V/s in mTeSR1 (StemCell Technologies, #05850). All measurements were replicated at least three times, and the cell number was calculated following detection.
(§2) The present inventors reported two kinds of small molecules for inducing the selective apoptosis of undifferentiated hPSCs in previous studies (33). Therefore, it was predicted that, due to the induction of apoptosis by YM-155, treatment with YM-155 would decrease the number of hPSCs and thereby lower the ipc. […] Label-free cell chip-based quantification of residual undifferentiated hPSCs may be applied at the end stage, which is critical to determine whether any additional treatment of undifferentiated cells is required in order to ensure safety of tumor-free cell therapy. To mimic this situation, hiPSCs were co-cultured with hASMCs. After the co-culture in the cell chip, hiPSCs still maintained the specific colony morphology of hPSCs (FIG. 6C, left panel, black dotted line), but after 24 h of YM155 treatment, there was a typical colony morphology in hiPSCs but not in hASMCs (FIG. 6C, right panel, red dotted line).

Another experiment has as its system hESCs (H9). As to the kind of experiment: Cell chip cyclic voltammetry (ipc) of hESCs after YM155 treatment. To be noted: 24 h after dose-dependent YM155 treatment (FIG. 6B). As to the method:
(§3) hESCs (H9; Wicell Research Institute) and hiPSCs (SES8; (32)) were cultured in mTeSR1 medium (StemCell Technologies) under feeder-free conditions. hASMCs and i-dSMCs were cultured in smooth muscle cell-specific medium, SMCM (ScienCell Research Laboratories), and hDFs were cultured in DMEM medium (Gibco) supplemented with 10% FBS and 0.1% gentamycin. Alkaline phosphatase staining was performed according to the direction included in the Alkaline Phosphatase Kit (Sigma).
(§4) Cyclic voltammetry (CV) method was carried out using a CHIe660C Potentiostat (CH Instruments, Austin, Tex., USA). A fabricated chip, based on an Au electrode as a working electrode, an Ag/AgCl (1M KCl) as a reference electrode, and a Pt wire as a counter electrode was used. For the electrochemical measurement, cells were washed with PBS (0.01 M, PH 7.4). […] All measurements were replicated at least three times, and the cell number was calculated following detection.
(§5) The present inventors reported two kinds of small molecules for inducing the selective apoptosis of undifferentiated hPSCs in previous studies (33). […] Label-free cell chip-based quantification of residual undifferentiated hPSCs may be applied at the end stage, which is critical to determine whether any additional treatment of undifferentiated cells is required in order to ensure safety of tumor-free cell therapy. […]

The subject of the next experiment is hiPSCs (SES8). In words: Cell chip cyclic voltammetry (ipc) and cell number of hiPSCs after YM155 treatment. To be noted: 24 h after dose-dependent YM155 treatment (FIG. 6A). The method, then:
as §3, §4, §5

A further experiment has as its system undifferentiated hPSCs. In words: Detection of specific cathodic peak potential (Epc) of hPSCs after YM-155 treatment. To be noted: after YM-155 treatment to ablate undifferentiated hPSCs. The method, then:
as §1

The subject of experiment [2] is SSEA3-positive vs SSEA3-negative populations of hESC mixed culture. As to the kind of experiment: Active caspase-3 apoptosis FACS in mixed culture of hESCs and differentiated cells derived therefrom. To be noted: 40 nM, mixed culture of hESCs and differentiated cells derived therefrom (FIG. 10).
Source text: Cells were stained with respective fluorescent-labeled antibodies and analyzed using FACSCalibur (BD Biosciences). The following antibodies were used: Oct4 (Abcam), FITC Rat Anti-SSEA3 and PE Mouse Anti-Human TRA-1-60 (BD Pharminogen). For apoptosis assays, cells were stained using the PE Annexin V Apoptosis Detection Kit and the PE Active Caspase-3 Apoptosis Kit (BD Pharminogen) according to the manufacturer's direction.
as §2

Turning to `COCCn1c2c([n+](Cc3cnccn3)c1C)C(=O)c1ccccc1C2=O` [YM-155], the “ipc level upon co-culture of hiPSCs and hASMCs” value in experiment [1] (40 nM YM155, compared with equal number of untreated hASMCs) is “as low as that of hASMCs”. Moreover, the “hiPSC colony morphology on the cell chip” value in experiment [1] (24 hour after treatment with 30 nM YM155, mixed culture of hiPSCs and hASMCs (FIG. 6C)) is “altered morphology of hiPSC colony”. Further, the “ipc upon co-culture of hiPSCs and hASMCs” value in experiment [1] (mixed culture, 24 hours after treatment, different doses (FIG. 6D)) is “gradually decreased in a dose-dependent manner”. Further, the “cathodic peak current (ipc)” value in the experiment on hESCs (H9) and with hiPSCs (SES8) was “markedly reduced” in each case. Also, the number of cells result in the experiment with hiPSCs (SES8) was “markedly reduced”. The “specific Epc of hPSCs” value in the experiment with undifferentiated hPSCs was “completely disappeared”. Besides, the “apoptosis by active caspase-3” value in experiment [2] is reported as “shown in only SSEA3-positive populations, not in SSEA3-negative populations”; in experiment [2] (listed as YM-55), “shown in only the SSEA3+(positive) population, but not in SSEA3-(negative) population”.
